# Assay results taken from patent US6063926A, “Substituted oximes as neurokinin antagonists” (Schering Corporation, priority 1998, dated 2000).
# Where two headings read alike, the source gives them in different places.
# Key:
# [1] = molecular target: NK1 receptor (Homo sapiens, UniProt P25103); assay: neurokinin receptor binding assay, NK1 (Ki)
# Source text: (§1) The in vitro and in vivo activity of the compounds of formula I can be determined by various procedures known in the art, such as a test for their ability to inhibit the activity of the NK1 agonist Substance P, an isolated hamster trachea NK2 assay, a test of the effect of NK1 antagonists on Substance P-induced airway microvascular leakage, measurement of NK2 activity in vivo in guinea pigs, measurement of bronchoconstriction due to NKA, and neurokinin receptor binding assay(s). Typical procedures are described in WO96/34857, published Nov. 7, 1996. NK3 activity is determined by following a procedure similar to that described in the literature, e.g., Molecular Pharmacol., 48 (1995), p. 711-716.
# (§2) % Inhibition is the difference between the percent of maximum specific binding (MSB) and 100%. The percent of MSB is defined by the following equation, wherein "dpm" is disintegrations per minute: [formula]
# (§3) Using the test procedures described above, the following 35 data (Ki) were obtained for exemplified compounds: […]
# [2] = molecular target: T1, NK2 receptor (Homo sapiens, UniProt P21452); assay: neurokinin receptor binding assay, NK2 (Ki)
# T1 sequence (P21452 1-398): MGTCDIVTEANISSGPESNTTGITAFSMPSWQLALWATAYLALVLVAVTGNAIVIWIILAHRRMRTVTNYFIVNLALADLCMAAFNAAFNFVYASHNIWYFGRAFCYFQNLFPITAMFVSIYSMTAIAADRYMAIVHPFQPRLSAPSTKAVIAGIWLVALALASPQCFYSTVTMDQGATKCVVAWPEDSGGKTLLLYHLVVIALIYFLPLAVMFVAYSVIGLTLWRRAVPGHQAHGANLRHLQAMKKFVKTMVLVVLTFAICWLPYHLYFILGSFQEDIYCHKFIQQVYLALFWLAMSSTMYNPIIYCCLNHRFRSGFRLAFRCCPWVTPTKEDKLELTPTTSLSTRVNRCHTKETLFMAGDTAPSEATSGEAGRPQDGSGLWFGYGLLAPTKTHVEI
# Source text: as §1, §2, §3
# Chain of NK1 receptor (P25103 whole entry): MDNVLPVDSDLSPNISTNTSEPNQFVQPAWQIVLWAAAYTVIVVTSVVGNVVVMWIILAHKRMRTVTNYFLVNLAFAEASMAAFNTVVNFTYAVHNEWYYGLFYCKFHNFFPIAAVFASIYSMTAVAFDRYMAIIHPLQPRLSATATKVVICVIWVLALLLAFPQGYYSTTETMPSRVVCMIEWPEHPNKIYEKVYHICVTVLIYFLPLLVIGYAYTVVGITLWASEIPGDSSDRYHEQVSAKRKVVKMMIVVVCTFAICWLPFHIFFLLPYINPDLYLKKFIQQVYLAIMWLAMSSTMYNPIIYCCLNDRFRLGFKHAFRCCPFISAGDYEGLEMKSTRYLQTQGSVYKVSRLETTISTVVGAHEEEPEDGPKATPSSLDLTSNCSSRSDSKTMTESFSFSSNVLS
Compound,"Ki ([1]; compound of Example 11, amide disclosed in U.S. Pat. No. 5,696,267, read-out: Ki for the NK1 receptor (unit inferred)) [nM]","Ki ([2]; compound of Example 11, amide disclosed in U.S. Pat. No. 5,696,267, read-out: Ki for the NK2 receptor (unit inferred)) [nM]",Ki ([1]; read-out: Ki (NK1)) [nM],Ki ([2]; read-out: Ki (NK2)) [nM]
CO/N=C(\CN(C)C(=O)c1cc(C(F)(F)F)cc(C(F)(F)F)c1)C(CCN1CCC(O)(c2ccccc2)CC1)c1ccc(Cl)c(Cl)c1 (centres unmarked) [Example 11],3.6,9.2,–,–
CON=C(CN(C)C(=O)c1cc(Cl)cc(Cl)c1)C(CCN1CCC(N2CCCC(CC(=O)N3CC(O)C3)C2=O)CC1)c1ccc(Cl)c(Cl)c1 (centres unmarked) [Example 12E],–,–,0.4,0.2
CON=C(CN(C)C(=O)c1cc(Cl)cc(Cl)c1)C(CCN1CCC(N2CCCC(CC(=O)N3CCCC3)C2=O)CC1)c1ccc(Cl)c(Cl)c1 (centres unmarked) [Example 12F],–,–,0.6,0.8
CON=C(CN(C)C(=O)c1cc(Cl)cc(Cl)c1)C(CCN1CCC(N2CCCC(CC(=O)N3CCOCC3)C2=O)CC1)c1ccc(Cl)c(Cl)c1 (centres unmarked) [Example 12K],–,–,0.9,0.5
CON=C(CN(C)C(=O)c1cc(Cl)cc(Cl)c1)C(CCN1CCC(N2CCCC(CC(=O)N3CCC(O)CC3)C2=O)CC1)c1ccc(Cl)c(Cl)c1 (centres unmarked) [Example 12L],–,–,0.5,0.9
CON=C(CN(C)C(=O)c1cc(Cl)cc(Cl)c1)[C@H](CCN1CCC(N2CCC[C@H](CC(=O)N(C)C)C2=O)CC1)c1ccc(Cl)c(Cl)c1 [Example 13A],–,–,0.8,0.2
CNC(=O)C[C@H]1CCCN(C2CCN(CC[C@@H](C(CN(C)C(=O)c3cc(Cl)cc(Cl)c3)=NOC)c3ccc(Cl)c(Cl)c3)CC2)C1=O [Example 13B],–,–,0.9,0.3
CON=C(CN(C)C(=O)c1cc(Cl)cc(Cl)c1)[C@H](CCN1CCC(N2CCC[C@H](CC(N)=O)C2=O)CC1)c1ccc(Cl)c(Cl)c1 [Example 13C],–,–,0.4,0.2
CON=C(CN(C)C(=O)c1cc(Cl)cc(Cl)c1)[C@H](CCN1CCC(N2CCCCC2=O)CC1)c1ccc(Cl)c(Cl)c1 [Example 13D],–,–,1.1,0.7
CON=C(CN(C)C(=O)c1cc(Cl)cc(Cl)c1)[C@H](CCN1CCC(N2CCC[C@H](CC(=O)O)C2=O)CC1)c1ccc(Cl)c(Cl)c1 [Example 13E],–,–,0.4,0.6
CON=C(CN(C)C(=O)c1cc(Cl)cc(Cl)c1)[C@H](CCN1CCC(N2CCC[C@H](CC(=O)OC)C2=O)CC1)c1ccc(Cl)c(Cl)c1 [Example 13F],–,–,0.2,0.3
CON=C(CN(C)C(=O)c1cc(Cl)cc(Cl)c1)[C@H](CC[N+]1([O-])CCC(N2CCCCC2=O)CC1)c1ccc(Cl)c(Cl)c1 (some centres unmarked) [Example 13G],–,–,1.5,0.4
CNC(=O)C[C@H]1CCCN(C2CC[N+]([O-])(CC[C@@H](C(CN(C)C(=O)c3cc(Cl)cc(Cl)c3)=NOC)c3ccc(Cl)c(Cl)c3)CC2)C1=O (some centres unmarked) [Example 13H],–,–,2.6,0.4
CN(C)C(=O)CC1CCCN(C2CCN(CCC(C(CN(C)C(=O)c3cc(Cl)cc(Cl)c3)=NO)c3ccc(Cl)c(Cl)c3)CC2)C1=O (centres unmarked) [Example 14B],–,–,0.3,0.8
CN(C)C(=O)CC1CCCN(C2CCN(CCC(C(CN(C)C(=O)c3cc(Cl)cc(Cl)c3)=NOCC(N)=NO)c3ccc(Cl)c(Cl)c3)CC2)C1=O (centres unmarked) [Example 14D],–,–,0.3,0.2
CON=C(N)CON=C(CN(C)C(=O)c1cc(Cl)cc(Cl)c1)C(CCN1CCC(N2CCCC(CC(=O)N(C)C)C2=O)CC1)c1ccc(Cl)c(Cl)c1 (centres unmarked) [Example 14E],–,–,0.2,0.4
CNC(=O)CC1CCCN(C2CCN(CCC(C(CN(C)C(=O)c3cc(Cl)cc(Cl)c3)=NO)c3ccc(Cl)c(Cl)c3)CC2)C1=O (centres unmarked) [Example 15A],–,–,0.2,0.7
CNC(=O)CC1CCCN(C2CCN(CCC(C(CN(C)C(=O)c3cc(Cl)cc(Cl)c3)=NOCC#N)c3ccc(Cl)c(Cl)c3)CC2)C1=O (centres unmarked) [Example 15B],–,–,1.7,0.8
CNC(=O)CC1CCCN(C2CCN(CCC(C(CN(C)C(=O)c3cc(Cl)cc(Cl)c3)=NOCC(N)=O)c3ccc(Cl)c(Cl)c3)CC2)C1=O (centres unmarked) [Example 15D],–,–,0.4,0.5
CNC(=O)CON=C(CN(C)C(=O)c1cc(Cl)cc(Cl)c1)C(CCN1CCC(N2CCCC(CC(=O)NC)C2=O)CC1)c1ccc(Cl)c(Cl)c1 (centres unmarked) [Example 15E],–,–,0.5,1
CNC(=O)CC1CCCN(C2CCN(CCC(C(CN(C)C(=O)c3cc(Cl)cc(Cl)c3)=NOCC(N)=NO)c3ccc(Cl)c(Cl)c3)CC2)C1=O (centres unmarked) [Example 15F],–,–,0.4,0.8
CNC(=O)CC1CCCN(C2CCN(CCC(C(CN(C)C(=O)c3cc(Cl)cc(Cl)c3)=NOCC(=O)Nc3nncs3)c3ccc(Cl)c(Cl)c3)CC2)C1=O (centres unmarked) [Example 15G],–,–,0.9,1.3

Compound,"Ki ([1]; compound of Example 11, amide disclosed in U.S. Pat. No. 5,696,267, read-out: Ki for the NK1 receptor (unit inferred)) [nM]","Ki ([2]; compound of Example 11, amide disclosed in U.S. Pat. No. 5,696,267, read-out: Ki for the NK2 receptor (unit inferred)) [nM]",Ki ([1]; read-out: Ki (NK1)) [nM],Ki ([2]; read-out: Ki (NK2)) [nM]
CNC(=O)CC1CCCN(C2CCN(CCC(C(CN(C)C(=O)c3cc(Cl)cc(Cl)c3)=NOCCCS(=O)(=O)O)c3ccc(Cl)c(Cl)c3)CC2)C1=O (centres unmarked) [Example 15H],–,–,0.2,0.4
CNC(=O)CC1CCCN(C2CCN(CCC(C(CN(C)C(=O)c3cc(Cl)cc(Cl)c3)=NOCC(=O)NCC#N)c3ccc(Cl)c(Cl)c3)CC2)C1=O (centres unmarked) [Example 15I],–,–,0.8,1
CNC(=O)CC1CCCN(C2CCN(CCC(C(CN(C)C(=O)c3cc(Cl)cc(Cl)c3)=NOCC(=O)NCS(=O)(=O)O)c3ccc(Cl)c(Cl)c3)CC2)C1=O (centres unmarked) [Example 15J],–,–,0.7,4.3
CNC(=O)CC1CCCN(C2CCN(CCC(C(CN(C)C(=O)c3cc(Cl)cc(Cl)c3)=NOCF)c3ccc(Cl)c(Cl)c3)CC2)C1=O (centres unmarked) [Example 15K],–,–,0.5,0.2
CCON=C(CN(C)C(=O)c1cc(Cl)cc(Cl)c1)C(CCN1CCC(N2CCCC(CC(=O)NC)C2=O)CC1)c1ccc(Cl)c(Cl)c1 (centres unmarked) [Example 15L],–,–,1,1.4
CNC(=O)CC1CCCN(C2CCN(CCC(C(CN(C)C(=O)c3cc(Cl)cc(Cl)c3)=NOCC(N)=NOC)c3ccc(Cl)c(Cl)c3)CC2)C1=O (centres unmarked) [Example 15M],–,–,0.2,0.3
CN(CC(=NO)C(CCN1CCC(N2CCCC(CC(N)=O)C2=O)CC1)c1ccc(Cl)c(Cl)c1)C(=O)c1cc(Cl)cc(Cl)c1 (centres unmarked) [Example 16A],–,–,0.2,0.7
CN(CC(=NO)C(CCN1CCC(N2CCCCC2=O)CC1)c1ccc(Cl)c(Cl)c1)C(=O)c1cc(Cl)cc(Cl)c1 (centres unmarked) [Example 17A],–,–,0.5,3
CN(CC(=NOCC(N)=NO)C(CCN1CCC(N2CCCCC2=O)CC1)c1ccc(Cl)c(Cl)c1)C(=O)c1cc(Cl)cc(Cl)c1 (centres unmarked) [Example 17E],–,–,0.7,0.7
CN(CC(=NOCCCS(=O)(=O)O)C(CCN1CCC(N2CCCCC2=O)CC1)c1ccc(Cl)c(Cl)c1)C(=O)c1cc(Cl)cc(Cl)c1 (centres unmarked) [Example 17K],–,–,3.3,2.7
CN(CC(=NOCF)C(CCN1CCC(N2CCCCC2=O)CC1)c1ccc(Cl)c(Cl)c1)C(=O)c1cc(Cl)cc(Cl)c1 (centres unmarked) [Example 17S],–,–,0.8,0.8
CON=C(CN(C)C(=O)c1cc(C)cc(C)c1)C(CCN1CCC(N2CCCCC2=O)CC1)c1ccc(Cl)c(Cl)c1 (centres unmarked) [Example 18B],–,–,0.8,0.4
Cc1cc(C)cc(C(=O)N(C)CC(=NOCC#N)C(CCN2CCC(N3CCCCC3=O)CC2)c2ccc(Cl)c(Cl)c2)c1 (centres unmarked) [Example 18D],–,–,0.4,0.4
Cc1cc(C)cc(C(=O)N(C)CC(=NOCC(N)=NO)C(CCN2CCC(N3CCCCC3=O)CC2)c2ccc(Cl)c(Cl)c2)c1 (centres unmarked) [Example 18E],–,–,0.4,0.4
Cc1cc(C)cc(C(=O)N(C)CC(=NOCC(=O)N2CCSCC2)C(CCN2CCC(N3CCCCC3=O)CC2)c2ccc(Cl)c(Cl)c2)c1 (centres unmarked) [Example 18J],–,–,0.3,3.4
CON=C(N)CON=C(CN(C)C(=O)c1cc(C)cc(C)c1)C(CCN1CCC(N2CCCCC2=O)CC1)c1ccc(Cl)c(Cl)c1 (centres unmarked) [Example 18M],–,–,0.2,0.4
Cc1cc(C)cc(C(=O)N(C)CC(=NOCC(N)=NO)C(CCN2CCC(N3CCCC(CC(=O)N(C)C)C3=O)CC2)c2ccc(Cl)c(Cl)c2)c1 (centres unmarked) [Example 19C],–,–,0.2,0.2
Cc1cc(C)cc(C(=O)N(C)CC(=NOCC(=O)Nc2nncs2)C(CCN2CCC(N3CCCC(CC(=O)N(C)C)C3=O)CC2)c2ccc(Cl)c(Cl)c2)c1 (centres unmarked) [Example 19D],–,–,0.9,1.4
CONC(=O)CON=C(CN(C)C(=O)c1cc(C)cc(C)c1)C(CCN1CCC(N2CCCC(CC(=O)N(C)C)C2=O)CC1)c1ccc(Cl)c(Cl)c1 (centres unmarked) [Example 19E],–,–,0.6,1.8
COc1cc(C(=O)N(C)CC(=NOCC(N)=NO)C(CCN2CCC(N3CCCCC3=O)CC2)c2ccc(Cl)c(Cl)c2)cc(OC)c1C (centres unmarked) [Example 21B],–,–,6,0.5
COc1cc(C(=O)N(C)CC(=NOCC(N)=NO)C(CCN2CCC(O)(c3ccccc3)CC2)c2ccc(Cl)c(Cl)c2)cc(OC)c1OC (centres unmarked) [Example 23],–,–,0.8,0.5
